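Exposure lasted 48 hours, with cells grown in 96-well plates and compounds tested at five concentrations. TGI is the concentration that stops growth completely.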
How the values were obtained:
Experiment in all cases: NCI anticancer screen, dose series, 48 h
786-0 renal = tested on: 786-0 renal
A498 renal = tested on: A498 renal
A549 NSCLC = tested on: A549 NSCLC
ACHN renal = tested on: ACHN renal
CCRF-CEM leukemia = tested on: CCRF-CEM leukemia
COLO 205 colon = tested on: COLO 205 colon
DLD-1 colon = tested on: DLD-1 colon
DMS 273 small cell lung = tested on: DMS 273 small cell lung
EKVX NSCLC = tested on: EKVX NSCLC
HCC-2998 colon = tested on: HCC-2998 colon
HCT-116 colon = tested on: HCT-116 colon
HCT-15 colon = tested on: HCT-15 colon
HL-60(TB) leukemia = tested on: HL-60(TB) leukemia
HOP-62 NSCLC = tested on: HOP-62 NSCLC
HOP-92 NSCLC = tested on: HOP-92 NSCLC
HT29 colon = tested on: HT29 colon
IGROV1 ovarian = tested on: IGROV1 ovarian
K-562 leukemia = tested on: K-562 leukemia
KM12 colon = tested on: KM12 colon
KM20L2 colon = tested on: KM20L2 colon
LOX IMVI melanoma = tested on: LOX IMVI melanoma
LXFL 529 NSCLC = tested on: LXFL 529 NSCLC
M14 melanoma = tested on: M14 melanoma
M19-MEL melanoma = tested on: M19-MEL melanoma
MALME-3M melanoma = tested on: MALME-3M melanoma
MOLT-4 leukemia = tested on: MOLT-4 leukemia
NCI-H226 lung = tested on: NCI-H226 lung
NCI-H23 lung = tested on: NCI-H23 lung
NCI-H460 lung = tested on: NCI-H460 lung
NCI-H522 lung = tested on: NCI-H522 lung
OVCAR-3 ovarian = tested on: OVCAR-3 ovarian
OVCAR-4 ovarian = tested on: OVCAR-4 ovarian
OVCAR-5 ovarian = tested on: OVCAR-5 ovarian
RXF 393 renal = tested on: RXF 393 renal
SF-268 CNS = tested on: SF-268 CNS
SF-295 CNS = tested on: SF-295 CNS
SF-539 CNS = tested on: SF-539 CNS
SK-MEL-2 melanoma = tested on: SK-MEL-2 melanoma
SK-MEL-28 melanoma = tested on: SK-MEL-28 melanoma
SK-OV-3 ovarian = tested on: SK-OV-3 ovarian
SN12C renal = tested on: SN12C renal
SNB-19 CNS = tested on: SNB-19 CNS
SNB-78 CNS = tested on: SNB-78 CNS
SR leukemia = tested on: SR leukemia
SW-620 colon = tested on: SW-620 colon
TK-10 renal = tested on: TK-10 renal
U251 CNS = tested on: U251 CNS
UACC-257 melanoma = tested on: UACC-257 melanoma
UACC-62 melanoma = tested on: UACC-62 melanoma
UO-31 renal = tested on: UO-31 renal
XF 498 CNS = tested on: XF 498 CNS
CAKI-1 renal = tested on: CAKI-1 renal
DMS 114 small cell lung = tested on: DMS 114 small cell lung
HOP-18 NSCLC = tested on: HOP-18 NSCLC
OVCAR-8 ovarian = tested on: OVCAR-8 ovarian
RPMI-8226 leukemia = tested on: RPMI-8226 leukemia
SK-MEL-5 melanoma = tested on: SK-MEL-5 melanoma
SNB-75 CNS = tested on: SNB-75 CNS

Measured: TGI

CN1C/C(=C\c2ccccc2)C2=NN(C(N)=S)[C@H](c3ccccc3)[C@@H]2C1
54.8 µM: HL-60(TB) leukemia
not listed: CAKI-1 renal | DMS 114 small cell lung | HOP-18 NSCLC | OVCAR-8 ovarian | RPMI-8226 leukemia | SK-MEL-5 melanoma | SNB-75 CNS
> 100 µM: all other assays above

CCCCCCNC(=O)CCN(C(=O)O)S(=O)(=O)c1ccc(NC(=O)c2ccccc2)cc1
52.3 µM: CCRF-CEM leukemia
> 64.2 µM: HL-60(TB) leukemia
38.4 µM: SF-539 CNS
> 62.2 µM: LOX IMVI melanoma | NCI-H460 lung
> 53.1 µM: DMS 114 small cell lung
54.4 µM: RPMI-8226 leukemia
> 59.8 µM: COLO 205 colon
53.8 µM: SR leukemia
30.6 µM: SW-620 colon
> 81.6 µM: M19-MEL melanoma
43.2 µM: DLD-1 colon
42.3 µM: U251 CNS
> 69.6 µM: UACC-257 melanoma
> 55.2 µM: DMS 273 small cell lung
> 60.1 µM: MOLT-4 leukemia
> 77.7 µM: UACC-62 melanoma
> 59.5 µM: HCT-116 colon
> 58.4 µM: HCT-15 colon
> 71.1 µM: K-562 leukemia
> 66.2 µM: A549 NSCLC
> 100 µM: all other assays above
